Values of other authors as cited in US11103490B2, “Clevidipine emulsion formulations containing antimicrobial agents” (Chiesi Farmaceutici, S.P.A., priority 2010, dated 2021).

Tests used:
[1] = in vivo

For `CCCC(=O)OCOC(=O)C1=C(C)NC(C)=C(C(=O)OC)C1c1cccc(Cl)c1Cl` (stereo not shown) [Clevidipine, clevidipine], the solubility in lipids is given as “moderate to high”, the solubility in water is given as “low” and the initial phase half-life [1] is given as “about one”. For the same compound, the terminal half-life [1] was “approximately 15 minutes”.
